Laboratory results taken from publication PMC9088311, “Cyclic Thiosulfonates for Thiol-Mediated Uptake: Cascade Exchangers, Transporters, Inhibitors” (JACS Au, 2022).
≈ marks a conversion by molar mass, not a printed value. Where “and” joins values, the source holds several entries; their conditions need not be identical. Identical values can stand only once. Like-named read-outs stand apart in the source and are kept apart here.

Columns and labels:
HeLa Kyoto cells = experiment: Relative viability (HOE/PI) in HCHT screening
Method: One advantage of HCHT imaging of cellular uptake compared to flow cytometry[38],[42],[43] is that it simultaneously gives information on toxicity and intracellular localization. […] Information on the intracellular localization of reporters can be quantified through segmentation of cellular compartments stained with specific markers.[52]
(§1) Uptake inhibition was measured by the automated HCHT imaging used already to elaborate on cytosolic delivery. For inhibitor screening, HK cells in multiwell plates were incubated with increasing concentrations of inhibitors, followed by fluorescent transporters 28, 31, and 32 at a constant concentration. […] If inhibitors are removed before the addition of transporters 28, 31, and 32, the method is referred to as “pre-incubation”. This is of interest to minimize exchange between the transporter and the inhibitor but is often problematic because dynamic covalent exchange between the inhibitor and cellular target can also be reversed and thus lost. The complementary “co-incubation” operates without inhibitor removal before the addition of transporters 28, 31, and 32.
Relative cell viability ( RV) for each condition in the presence of inhibitors was calculated […]
of the relative cell viability ( RVrel) to the concentration of inhibitors ( cinhibitor ) was plotted and fitted with Equation (S19) to retrieve the concentration causing 50% cell growth inhibition (RV50) value and the Hill coefficient ( n).

in vitro = conditions: human
HK cells, transporter 28 = experiment: HCHT imaging: inhibition of cytosolic delivery of CTO transporter 28; format: cell-based, Human; conditions: inhibitor 1 h; for IC15: read-out: MIC (concentration needed to reach 15% inhibition), transporter 28 5 μM
Method: as §1
(§2) 536/40 nm emission filter, and red with 531/40 nm excitation filter and 593/40 nm emission […]
(§3) 4.3. HCHT Inhibitor Screening
(§4) Pre-Incubation Method. As in ref. S1. HeLa Kyoto cells were seeded at 8 ×10^4 cells/mL in FluoroBrite DMEM + 10% FBS on μ-Plate 96-well Black ibiTreat sterile and incubated at 37 °C with 5% CO 2 for 24 h. Then, the medium was removed and cells were washed with PBS ([…]), fresh FluoroBrite DMEM medium (4 × 150 μL/well) was added into the cells using a plate washer (Biotek EL406®), keeping a final volume of 135 μL/well. Different concentrations of the inhibitors were prepared by serial dilution with 10% final concentration DMSO (10× in PBS). The solution of compounds 4 and 33 was prepared final DMSO concentration of 10% in each dilution (10× in PBS). These inhibitor solutions (10× final concentration), transporter 28 (10× in DMEM), transporters 31 and 32 (10× in PBS) a solution of HOE (100 μg/mL) and PI (10 μg/mL) in PBS were prepared freshly in a 96-well V-bottom plate before adding to the cells. The inhibitor solutions from the V-bottom plate were added to the cells (15 μL/well) in a final volume of 150 μL/well using an electronic multichannel pipette and cells were incubated for 1 h at 37 °C with 5% CO 2. After this incubation, cells were washed again with PBS and DMEM using the plate washer (in the way mentioned above), and transporter 28 , 31 or 32 from the V-bottom plate was added (15 μL/well) to the cells in a final volume of 150 μL/well. A final concentration of each transporter 28 , 31 and 32 was 5 μM, 10 μM and 0.5 μM, respectively, except for the control wells, where only PBS was added (15 μL/well). Cells treated with transporter 28 or 31 were incubated for 30 min, and cells treated with 32 were incubated for 2 h at 37 °C with 5% CO 2. After that, the cells were washed with PBS and DMEM using the plate washer, and the solution of Hoechst 33342 and PI from the V-bottom plate was added (15 μL/well) to the cells in a final volume of 150 μL/well. After 15 min of incubation at 37 °C with 5% CO 2, the cells were washed and kept in clean FluoroBrite
(§5) DMEM. For live cell imaging, samples were kept at 37 °C with 5% CO 2 during the microscope imaging. The distribution of fluorescence stained cells was analyzed without fixing using an […]

[1] = Dynamic covalent ring opening with thiol 10, 1H NMR kinetics; format: physicochemical; conditions: pD 2.7
Method: The dynamic covalent opening of CTO 3 with thiols yields product 9 with a disulfide and a sulfinate (Figure 3B). Consistent with short chalcogen bonds found in silico, the opening of CTO 3 was instantaneous on an NMR timescale with most thiols. To decelerate ring opening, bulky thiols were considered in combination with lowered pH to deactivate the nucleophile. With N-Ac-D-penicillamine 10, the opening of 5 mM CTO 3 in phosphate buffer/DMSO-d6 9:1 was still immediate at pD 6.7 but became detectable in ^1H NMR spectroscopy kinetics under more acidic conditions. The ring-opening rate constants k^O were estimated by fitting the initial velocities to second-order kinetics. Only lower bound rates were approximated from the earliest determined substrate conversions when reactions were still too fast despite the unfavorable conditions. At pD 5.4, dynamic covalent ring opening of CTO 3 with equimolar tertiary thiol 10 occurred with k^O > 0.49 M^–1 s^–1 and equilibrated at K = 6.0 × 10^3 M^–1 (Table 1, entry 1, Figures S4 and S5). At pD 2.7, further deceleration to k^O = 0.10 M^–1 s^–1 shifted the equilibrium to K = 500 M^–1 (Table 1, entry 2, Figures S6 and S7). […] At equilibrium, the concentration of thiol 10 further decreased slowly due to oxidation into the homodimer (Figure 3C, diamonds).
Equilibrium constants for reactions with two reactants A and B and a product C are […]
3.1.1. Dynamic Covalent Ring Opening with Thiols
General procedure A (at 5 mM): To a solution of deuterated sodium phosphate (200 mM in D 2O, pD 2.7 or 5.4, 180 mM final concentration), a stock solution of substrate (0.10 M in DMSO-d6, 5.0 mM final concentration) was added and stirred. Then a stock solution of 10 (0.10 M in DMSO- d6, 5.0 mM final concentration) was added and vigorously stirred at room temperature. The solution was transferred immediately to an NMR tube and NMR data were recorded repeatedly. The concentration of the substrate or thiol at each time plot was calculated by comparing the integrals of the peaks indicated with arrows in the figures, and plotted. The data points were fitted to obtain k1 with the Equation (S6) or (S7) using Graphpad Prism.
General procedure B (at 2 mM): To a solution of deuterated sodium phosphate (200 mM in D 2O, pD 2.7 or 5.4, 180 mM final concentration), DMSO- d6 (10% DMSO- d6 in the reaction mixture) and a stock solution of substrate (0.10 M in DMSO- d6, 2.0 mM final concentration) were added and stirred. Then a stock solution of 10 (0.10 M in DMSO- d6, 2.0 mM final concentration) was added and vigorously stirred at room temperature. The solution was transferred immediately to an NMR tube and NMR data were recorded repeatedly. The concentration of the substrate or thiol at each time plot was calculated by comparing the integrals of the peaks indicated with arrows in the figures, and plotted. The data points were fitted to obtain k1 with the Equation (S6) or (S7) using Graphpad Prism.
General procedure C (for thiosulfinates): To a solution of deuterated sodium phosphate (200 mM in D 2O, pD 5.4, 170 mM final concentration), a stock solution of substrate (0.10 M in DMSO- d6, 5.0 mM final concentration) was added and stirred. Then a stock solution of 10 (0.10 M in DMSO- d6, 10 mM final concentration) was added and vigorously stirred at room […]
data points were fitted to obtain k1 with the Equation (S14) or (S16) using Graphpad Prism. […]
3.1.2. Dependence of Ring Opening on Proticity
A mixture of deuterated phosphoric acid and NaOD (30% in D 2O), which gave pD 2.7 in D2O, was used as buffer in all solvent mixtures. To a solution of deuterated sodium phosphate (20 mM final concentration) in a mixture of D 2O and DMSO- d6 (540 μL, final D 2O content: […]
concentration) was added and stirred. Then a stock solution of 10 (0.10 M in DMSO- d6, 5.0 mM final concentration) was added and vigorously stirred at room temperature. The solution was transferred immediately to an NMR tube and 1H NMR data were recorded repeatedly. […]

HK cells, transporter 31 = experiment: HCHT imaging: inhibition of cytosolic delivery of ETP transporter 31; format: cell-based, Human; conditions: inhibitor 1 h; for IC50 / IC15: Homo sapiens; for IC50: read-out: IC50 (concentration needed to reach 50% inhibition), transporter 31 10 μM; for IC15: read-out: MIC (concentration needed to reach 15% inhibition), transporter 31 10 μM; for MIC (concentration needed to reach 15% inhibition): transporter 31 10 μM
Method: as §1, §2, §3, §4, §5

HK cells, transporter 32 = system: HK cells, transporter 32; design: method as in PMID 34173696; key to inhibition of OPS 32 uptake (heatmap): –: −: inactive; ++: qualitative inhibition of SC2 uptake; conditions: cited from earlier work
[2] = with transporter 28, co-incubation (C)
[3] = Homo sapiens, 1 h, read-out: IC50 (concentration needed to reach 50% inhibition), transporter 28 5 μM, co-incubation (C)
[4] = Homo sapiens, 1 h, co-incubation (C)
[5] = transporter 28 5 μM, co-incubation (C)
[6] = Homo sapiens, 1 h, pre-incubation (P)
[7] = Homo sapiens, read-out: IC50 (concentration needed to reach 50% inhibition), transporter 28 5 μM, pre-incubation (P)
[8] = transporter 28 5 μM, pre-incubation (P)
[9] = with transporter 31, co-incubation (C)

Compound	RV50 (concentration needed to lower relative viability by 50%) (HeLa Kyoto cells; [2])	viability at 7 h, 10 µM (in vitro)	IC50 (HK cells, transporter 28; [3])	IC15 (HK cells, transporter 28; [4])	MIC (concentration needed to reach 15% inhibition) (HK cells, transporter 28; [5])	viability at 7 h, 5 µM (in vitro)	IC15 (HK cells, transporter 28; [6])	IC50 (HK cells, transporter 28; [7])	MIC (concentration needed to reach 15% inhibition) (HK cells, transporter 28; [8])	RV50 (concentration needed to lower relative viability by 50%) (HeLa Kyoto cells; [9])	IC50 (HK cells, transporter 31; 1 h, co-incubation (C))	IC15 (HK cells, transporter 31; 1 h, co-incubation (C))	MIC (concentration needed to reach 15% inhibition) (HK cells, transporter 31; co-incubation (C))	viability at 7 h, 50 µM (in vitro)	also measured
O=C(NCCCCCCNC(=O)O[C@H]1CSS(=O)(=O)C[C@H]1OCc1ccccc1)O[C@H]1CSS(=O)(=O)C[C@H]1OCc1ccccc1 [Compound 33]	>5 µM	107%	> 5 µM	1.3 µM	1 µM										
O=C(NCCCCCCNC(=O)O[C@H]1CSS(=O)(=O)C[C@H]1O)O[C@H]1CSS(=O)(=O)C[C@H]1O [Compound 41]	>50 µM		8 µM	1 µM	1 µM	100%									
CC(C)(C)[Si](C)(C)O[C@H]1CS(=O)(=O)SC[C@H]1OC(=O)NCCNC(=O)CC(O)(CC(=O)NCCNC(=O)O[C@H]1CSS(=O)(=O)C[C@H]1O[Si](C)(C)C(C)(C)C)C(=O)NCCNC(=O)O[C@@H]1CSS(=O)(=O)C[C@@H]1O[Si](C)(C)C(C)(C)C (some centres unmarked) [Compound 42]		107%					1.8 µM	5.1 ± 0.4 µM	2 µM (≈ 2.58 µg/mL)						RV50 (concentration needed to lower relative viability by 50%) (HeLa Kyoto cells; with transporter 28, pre-incubation (P)): 22 ± 3 µM and 22 µM; IC50 (HK cells, transporter 28; read-out: IC50 (concentration needed to reach 50% inhibition), transporter 28 5 μM, pre-incubation (P)): 5 µM
CC1(C)O[C@H]2CSS(=O)(=O)C[C@H]2O1 [Compound 13]						125 ± 5%				29 ± 6 µM	> 10 µM	> 10 µM			k^O, rate constant of ring opening (or equivalent for acyclic controls) ([1]; equimolar 10, rt, 90% D2O, Na+ phosphate 180 mM, substrate 2 mM): 2.3 M^–1 s^–1; krel^O, rate constant of ring opening relative to 3 ([1]; 90% D2O, 2 mM): 23; ring-opening rate relative to acyclic control 14 (fold) ([1]; with thiol 10, 2 mM): about 4 ×
O=S(O)CC(O)C(O)CSSCCSSCC(O)C(O)CS(=O)O (centres unmarked) [Compound 40]										>50 µM	50 µM	7.8 µM	8 µM	96%	
O=C(O)Cn1[se]c2ccccc2c1=O [Compound 45, reference compound]							1.2 µM	8 µM	1 µM (≈ 0.256 µg/mL)		8 µM	2.2 µM	2 µM	81%	IC15 (HK cells, transporter 31; 1 h, pre-incubation (P)): < 1 µM; IC50 (HK cells, transporter 31; pre-incubation (P)): 10 µM; MIC (concentration needed to reach 15% inhibition) (HK cells, transporter 31; pre-incubation (P)): <1 µM; inhibition of OPS 32 uptake (heatmap) (HK cells, transporter 32; pre-incubation conditions): –; IC50 (HK cells, transporter 32; read-out: IC50 (concentration needed to reach 50% inhibition), transporter 32 0.5 or 1 μM, pre-incubation (P)): > 100 µM; MIC (concentration needed to reach 15% inhibition) (HK cells, transporter 32; transporter 32 0.5 or 1 μM, pre-incubation (P)): >100 µM
